Measured values from US20230212571A1, “COMPOSITIONS AND METHODS FOR DELIVERING POLYNUCLEOTIDES” (NeOnc Technologies, Inc., priority 2020, published 2023).

What was measured:
BEC = assay: Western blot of control BEC lysates; type: cell-based, human; settings: untreated vs scramble vs miR-18a
Description: Human surgical specimens were obtained following written informed consent from patients in accordance with Declaration of Helsinki guidelines and the Institutional Review Board (HS-04B053), at Keck School of Medicine, USC. AVM-BECs were isolated from brain tissues of patients who underwent microsurgical AVM resection. Control BECs were isolated from the structurally normal […] of patients who underwent temporal lobectomy for intractable epilepsy. Endothelial cell (EC) isolation and culture were described^5,9. (Stapleton C J, Armstrong D L, Zidovetzki R, Liu C Y, Giannotta S L, Hofman F M. Thrombospondin-1 modulates the angiogenic phenotype of human cerebral arteriovenous malformation endothelial cells. Neurosurgery. 2011; 68(5):1342-1353) (Ferreira R, Santos T, Amar A, et al. Argonaute-2 promotes miR-18a entry in human brain endothelial cells. J Am Heart Assoc. 2014; 3(3):e000968) ECs were only used between passages 3-5. Experiments were performed under shear flow conditions (12 dyn/cm^2) to reproduce arterial flow^6. […]
The levels of angiogenesis-related proteins were analyzed using the Proteome Profiler™ Human Angiogenesis Array kit (R&D Systems) following the manufacturer's instructions. […] Membranes were visualized and quantified using a C-Digit Blot scanner (Li-Cor) or a iBright CL1000 (Thermo Fisher Scientific).

AVM-BEC = assay: Western blot of AVM-BEC lysates; type: cell-based, human
Description: Human surgical specimens were obtained following written informed consent from patients in accordance with Declaration of Helsinki guidelines and the Institutional Review Board (HS-04B053), at Keck School of Medicine, USC. AVM-BECs were isolated from brain tissues of patients who underwent microsurgical AVM resection. Control BECs were isolated from the structurally normal […] of patients who underwent temporal lobectomy for intractable epilepsy. Endothelial cell (EC) isolation and culture were described^5,9. (Stapleton C J, Armstrong D L, Zidovetzki R, Liu C Y, Giannotta S L, Hofman F M. Thrombospondin-1 modulates the angiogenic phenotype of human cerebral arteriovenous malformation endothelial cells. Neurosurgery. 2011; 68(5):1342-1353) (Ferreira R, Santos T, Amar A, et al. Argonaute-2 promotes miR-18a entry in human brain endothelial cells. J Am Heart Assoc. 2014; 3(3):e000968) ECs were only used between passages 3-5. Experiments were performed under shear flow conditions (12 dyn/cm^2) to reproduce arterial flow^6. (Ferreira R, Santos T, Amar A, et al. MicroRNA-18a improves human cerebral arteriovenous malformation endothelial cell function. Stroke. 2014; 45(1):293-297). For hypoxic experiments, cells were cultured in a Galaxy 48R (Eppendorf) incubator at 3% O2. MicroRNAs were co-administered with Ago-2 to increase the cellular uptake of miR-18a^9 (Ferreira R, Santos T, Amar A, et al. Argonaute-2 promotes miR-18a entry in human brain endothelial cells. J Am Heart Assoc. 2014; 3(3):e000968) (FIG. 9). Methods regarding cell treatments and transfections were included in Data.
MiR-18a (hsa-miR-18a-5p, 40 nM, Dharmacon) or a scramble microRNA (40 nM, Dharmacon) in nuclease-free water was added with argonaute 2 (Ago-2, 0.4 nM, Abcam) as the microRNA carrier and stabilizer^9. (Ferreira R, Santos T, Amar A, et al. Argonaute-2 promotes miR-18a entry in human brain endothelial cells. J Am Heart Assoc. 2014; 3(3):e000968). No transfection reagent was used with miR-18a or scramble microRNA treatments. Recombinant human TSP-1 (R&D Systems) stock solution was prepared in PBS and further diluted in culture medium to be used at a final concentration of 1000 ng/mL. Cells were treated during 24 h for mRNA and 48 h for protein expression studies. NEO100 (NeOnc Technologies) stock was prepared in DMSO and used immediately or stored at −20° C.
The levels of angiogenesis-related proteins were analyzed using the Proteome Profiler™ Human Angiogenesis Array kit (R&D Systems) following the manufacturer's instructions. The protocol for western blot was published^10. (Marín-Ramos N I, Alonso D, Ortega-Gutiérrez S, et al. New inhibitors of angiogenesis with antitumor activity in vivo. J Med Chem. 2015; 58(9):3757-3766). Information about antibodies used was included in Table 1. Membranes were visualized and quantified using a C-Digit Blot scanner (Li-Cor) or a iBright CL1000 (Thermo Fisher Scientific).

With “hsa-miR-18a-5p (UAGGUGCAUCUAGUGCAGAUAG; chemistry not given here; listed as Homo sapiens) [small non-coding RNA molecule involved in post-transcriptional regulation of gene expression; Dharmacon]” the “levels of bFGF, ET-1, PAI-1 and VEGF (western blot)” value (BEC) was “remained unaltered”, the “MMP9 protein levels (western blot)” value (AVM-BEC; AVM-BEC) was “not significantly (P=0.9409) affected” and the “ratio MMP2/MMP9 protein levels” value (AVM-BEC; AVM-BEC) was “lowers the ratio MMP2/MMP9”. The “ADAM10 protein levels (western blot)” value (AVM-BEC; AVM-BEC, P<0.001) was “significantly decreased”, the “MMP2 protein levels (western blot)” value (AVM-BEC; AVM-BEC, P=0.0132) was “significantly decreased” and the “levels of TGF-β (western blot)” value (AVM-BEC; AVM-BEC, P>0.9999) was “not significantly changed”. The “phosphorylation levels of Smad3” value (AVM-BEC; AVM-BEC, P>0.9999) was “Neither the phosphorylation levels of Smad3 nor the total levels of Smad4 were altered”, the “total levels of Smad4” value (AVM-BEC; AVM-BEC, P>0.9999) was “Neither the phosphorylation levels of Smad3 nor the total levels of Smad4 were altered” and the “phosphorylation levels of Smad1/5” value (AVM-BEC; AVM-BEC, vs scramble) was “significantly (P<0.0001) decreased”. The “PAI-1 protein levels (western blot)” value (AVM-BEC; patient-derived AVM-BEC, vs scramble microRNA, P<0.001, n=8) was “decreased”.
